One series in a line: Plasma stability, human. It is filed as in vitro ADME.
The nature of another series: Plasma stability, mouse. It is filed as in vitro ADME.
The nature of series [1]: Microsomal stability, human. The series is classed as in vitro ADME.
In series [2] the test system is Fa2N-4 immortalized human hepatocytes. Description: Toxicity towards Fa2N-4 immortalized human hepatocytes. The series is classed as cell-based.
For series [3], the system named is noncanonical NF-κB activation induced by BAFF. Description: NF-κB luciferase in 697 pre-B leukemia cells, BAFF. Conditions: 697 cells, 10 μM.
Description: (§1) Luciferase activity was measured 24 h later (mean±SD; n=3).
(§2) Gene reporter assays: HEK293T or 697 cells containing integrated 5×NFκB-driven luciferase reporter gene were seeded into 96-well plates at 10^4 to 10^5 cells per well, and treated with respective inducers for 16 to 24 hours. […] The next day, cells were transfected with 50 ng pNF-κB-LUC (Clontech) and 5 ng Renilla luciferase gene driven by a constitutive TK promoter (pRL-TK; Promega) along with indicated plasmids. After 24 h of transfection in some experiments, cells were stimulated with various agents for 24 h or directly lysed and luciferase activities were assayed using the Dual Luciferase kit (Promega). The results for firefly luciferase activity were normalized to renilla luciferase activity. […] The mean results were obtained from triplicates.
Another series deals with T1, TLR9 (Homo sapiens, UniProt Q9NR96).
T1 sequence (Q9NR96 26-1032): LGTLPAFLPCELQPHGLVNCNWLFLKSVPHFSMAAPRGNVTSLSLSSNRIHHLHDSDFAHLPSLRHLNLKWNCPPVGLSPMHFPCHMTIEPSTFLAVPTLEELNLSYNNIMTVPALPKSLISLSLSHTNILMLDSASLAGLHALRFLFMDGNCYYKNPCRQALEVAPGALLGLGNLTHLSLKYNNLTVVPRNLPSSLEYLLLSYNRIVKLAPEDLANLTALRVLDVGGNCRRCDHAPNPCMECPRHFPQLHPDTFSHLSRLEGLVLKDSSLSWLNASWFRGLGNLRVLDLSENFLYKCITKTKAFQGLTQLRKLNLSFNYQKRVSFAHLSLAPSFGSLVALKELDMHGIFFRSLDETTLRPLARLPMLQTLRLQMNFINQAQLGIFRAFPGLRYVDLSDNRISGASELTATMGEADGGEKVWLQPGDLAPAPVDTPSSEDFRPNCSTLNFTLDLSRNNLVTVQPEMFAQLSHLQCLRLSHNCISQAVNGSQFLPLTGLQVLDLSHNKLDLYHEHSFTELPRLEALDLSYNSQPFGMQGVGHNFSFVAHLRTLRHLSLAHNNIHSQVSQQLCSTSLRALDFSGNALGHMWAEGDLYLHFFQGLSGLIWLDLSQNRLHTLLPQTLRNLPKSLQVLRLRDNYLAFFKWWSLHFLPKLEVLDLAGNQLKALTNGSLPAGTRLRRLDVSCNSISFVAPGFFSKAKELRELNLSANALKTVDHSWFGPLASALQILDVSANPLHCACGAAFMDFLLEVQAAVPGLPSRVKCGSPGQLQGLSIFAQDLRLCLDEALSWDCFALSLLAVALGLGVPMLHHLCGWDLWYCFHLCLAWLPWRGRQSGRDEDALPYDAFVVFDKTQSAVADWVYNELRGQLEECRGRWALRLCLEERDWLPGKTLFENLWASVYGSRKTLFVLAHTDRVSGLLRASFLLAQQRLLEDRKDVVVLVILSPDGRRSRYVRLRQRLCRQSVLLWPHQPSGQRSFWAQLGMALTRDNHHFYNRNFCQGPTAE
Description: NF-κB luciferase in 697 pre-B leukemia cells, TLR9 ligand CpG DNA. Conditions: 697 cells, 10 μM.

Where two headings read alike, the source gives them in different places.

Description for TLR9: as §1, §2

Turning to `Cc1ccc(S(=O)(=O)n2c(N)nc3ccccc32)cc1` [Compound 1], the “Plasma Stability (% Remaining at 3 hrs)” value in the series “Plasma stability, human” (Human, 3 hrs) is given as 100/100 % Remaining; in “Plasma stability, mouse” (Mouse, 3 hrs), 100/100 % Remaining. For the same compound, the “Stability in plasma (in words)” value is recorded as “high” in “Plasma stability, human” (human) and “high” in the series “Plasma stability, mouse” (mouse). The “Microsomal Stability (% Remaining at 1 hr)” value in series [1] (Human, 1 hr) is 41.78 % Remaining. Besides, the “Stability in microsomes (in words)” value in series [1] (human) is on record as “moderate”. For the same compound, the “Toxicity (LD50, μM)” value in series [2] and in series [2] (listed as MLS-0350096) was above 50 µM in each case. In series [3], the “Effect on NF-κB activation induced by BAFF” value is listed as “not inhibited”. The “Effect on NF-κB activity induced by TLR9 ligand CpG DNA” value at TLR9 is reported as “did not inhibit”.

Source of the values: US20120046329A1, “MODULATORS OF NOD1 AND NOD2 SIGNALING, METHODS OF IDENTIFYING MODULATORS OF NOD1 AND NOD2 SIGNALING, AND USES THEREOF” (Sanford-Burnham Medical Research Institute, priority 2010, published 2012).
